Results on eight molecules are retold here after PMC8815882, “Screening the pandemic response box identified benzimidazole carbamates, Olorofim and ravuconazole as promising drug candidates for the treatment of eumycetoma” (PLoS Neglected Tropical Diseases, 2022).

Test [1] has as its system Me. romeroi strain CBS128765. The test is described as follows: CLSI M38-A2 based in vitro susceptibility screening at 25 μM. Format: cell-based, Medicopsis romeroi. The following applies: selected if >75% (resazurin) or >80% (XTT) fungal growth inhibited.
The subject of test [2] is M. mycetomatis MM55. The test is described as follows: IC50 determination, 2-fold dilution series 16 to 0.03125 μM. The class given is cell-based, Madurella mycetomatis. The following applies: for IC50 / IC90: Madurella mycetomatis.
Test [3] has as its system F. senegalensis strain CBS132257. The test is described as follows: CLSI M38-A2 based in vitro susceptibility screening at 25 μM. Format: cell-based, Falciformispora senegalensis. To be noted: selected if >75% (resazurin) or >80% (XTT) fungal growth inhibited.
Test [4] deals with ten different M. mycetomatis isolates. Details: method as in PMID 24945848, PMID 22964246, PMID 31904836. The following applies: asterisk: determined in previous works ref 19-21; cited from earlier work.
Test [5] relates to eumycetoma. To be noted: cited from earlier work.
For test [6], the system named is M. mycetomatis genome strain MM55. The test is described as follows: CLSI M38-A2 based in vitro susceptibility screening (XTT or resazurin), growth at fixed concentration. Format: cell-based, Madurella mycetomatis. The following applies: Madurella mycetomatis; for Percent fungal survival at 100 µM: read-out: Percentage survival at 100um, 100 uM A (second replicate column).

The test system is the same in test [7]. Details: method as in PMID 29698504. The following applies: parasitic DHODH inhibitors of the MMV Pathogen Box screened previously; cited from earlier work.
Test [8] has as its system M. mycetomatis. The test is described as follows: Drug static or cidal determination. The class given is cell-based, Madurella mycetomatis. The source says: Supplement pntd.0010159.s001.xlsx, sheet "Pandemic Box Master sheet" | column: Drug static or cidal
Test [9] relates to ten different M. mycetomatis isolates. The test is described as follows: MIC / MIC50 determination (XTT) in ten M. mycetomatis isolates. The class given is cell-based, Madurella mycetomatis. To be noted: Madurella mycetomatis.
Test [10] deals with M. mycetomatis isolate MM55. The test is described as follows: M. mycetomatis grain infection model in G. mellonella larvae, survival. The class given is in vivo, Galleria mellonella. Details: In vivo efficacy, Larvae survival %: concentration or dose not given beside the values. To be noted: for Larvae survival rate on day ten: 20 μM per larvae at 4, 28, 52 h after infection.
The subject of test [11] is M. pseudomycetomatis strain Mex2A. The test is described as follows: CLSI M38-A2 based in vitro susceptibility screening at 25 μM. Format: cell-based, Madurella pseudomycetomatis. To be noted: selected if >75% (resazurin) or >80% (XTT) fungal growth inhibited.
Test [12] deals with M. tropicana strain CBS206.47. Described as above. Format: cell-based, Madurella tropicana. To be noted: selected if >75% (resazurin) or >80% (XTT) fungal growth inhibited.
[13] abbreviates: MM55, Table 2, M. mycetomatis MM55, read-out: IC50.
The mark [14] stands for this setting: MM55, replicate 1, read-out: IC50 1.
Setting [15] is: MM55, replicate 1, read-out: IC90 1.
Setting [16] is: MM55, replicate 2, read-out: IC50 2.
[17] abbreviates: MM55, replicate 2, read-out: IC90 2.
Where [18] appears, read: MM55, replicate 3, read-out: IC50 3.
Setting [19] is: MM55, replicate 3, read-out: IC90 3.
[20] abbreviates: replicate A, read-out: Percentage survival at 25um, 25 um A.
Where [21] appears, read: replicate B, read-out: Percentage survival at 25um, 25 uM B.
[22] abbreviates: replicate C, read-out: Percentage survival at 25um, 25 uM C.
Setting [23] is: MM55, mean of replicates, read-out: IC50 mean.
The mark [24] stands for this setting: G. mellonella larvae infected with M. mycetomatis.

Molecules are shown by their SMILES. Converted amounts (≈) assume the structure as drawn. Where two headings read alike, the source gives them in different places. A value given as a limit tells only on which side of the number the result lay.

On to `CCC(C)n1ncn(-c2ccc(N3CCN(c4ccc(OCC5COC(Cn6cncn6)(c6ccc(Cl)cc6Cl)O5)cc4)CC3)cc2)c1=O` (centres unmarked) [MMV637528, Itraconazole, reference compound], for which the “Inhibits growth of Medicopsis romeroi at 25 μM” value in test [1] is reported as “did not inhibit the growth”. Also, the IC50 in [2] (setting [13]) worked out at 1130 nM; in test [2] (MM55, mean, read-out: IC50 mean), 1130 nM; in test [2] (setting [14]) it was 1700 nM; in test [2] (setting [16]), 740 nM; in [2] (setting [18]) it was 940 nM. The IC90 in test [2] (MM55, read-out: IC90 mean) worked out at 2210 nM; in test [2] (setting [15]), 3800 nM; in test [2] (setting [17]) it was 1320 nM; in test [2] (setting [19]) it was 1500 nM. In addition, the “Inhibits growth of Falciformispora senegalensis at 25 μM” value in test [3] is recorded as “did not inhibit the growth”. The “MIC50” value in [4] is 0.05 µM (≈ 0.0353 µg/mL). The “MIC range” value in test [4] was less than 0.02 to 0.25 µM. Also, in test [5] (eumycetoma patients, itraconazole with surgery), the “Cure rate of patients” value was 8% - 26%. The activity at 25 µM is -1.04% in [6] (mean, read-out: Percentage survival at 25um, 25 uM mean); -2.88% in test [6] (setting [20]); -2.55% in test [6] (setting [21]); 2.31% in test [6] (setting [22]). Besides, the activity at 100 µM was 2.34% in test [6] (mean, read-out: Percentage survival at 100um, 100 uM mean); -3.71% in [6] (replicate (first column), read-out: Percentage survival at 100um, 100 uM A); 3.66% in test [6] (replicate (second column), read-out: Percentage survival at 100um, 100 uM A); 7.05% in [6] (replicate (third column), read-out: Percentage survival at 100um, 100 uM A).
Regarding `Cc1cc(Nc2ccc(C(F)(F)F)cc2)n2ccnc2n1` [MMV011229], the “In vitro activity against M. mycetomatis” value in test [7] is “no activity”.
In the case of `CC(C)C(NC(=O)Cc1cccc2ccccc12)C(=O)Nc1cccc(C#N)c1` (centres unmarked) [MMV020591], the “In vitro activity against M. mycetomatis” value in test [7] was “no activity”.
`Cc1ccc(NC(=O)c2cc(S(=O)(=O)NC(C)(C)C)ccc2C)nc1` [MMV020289]: the “In vitro activity against M. mycetomatis” value in [7] is listed as “no activity”.
With `Oc1c(C(Nc2nc3ccccc3s2)c2ccc(OC(F)F)cc2)ccc2cccnc12` (centres unmarked) [MMV019724], the IC50 in [2] (setting [13]) is 4870 nM; in [2] (setting [23]) it was 4870 nM; in [2] (setting [14]) it was 2680 nM; in test [2] (setting [16]), 2920 nM; in test [2] (setting [18]), 9000 nM. Moreover, the IC90 was found to be 18200 nM in test [2] (MM55, mean of replicates, read-out: IC90 mean); 14000 nM in [2] (setting [15]); 19200 nM in test [2] (setting [17]); 21400 nM in test [2] (setting [19]). Further, in test [8], the “Drug static or cidal” value is “Static”. In addition, the MIC50 in test [9] (median MIC over ten M. mycetomatis isolates, no asterisk, read-out: MIC50) worked out at 4 µM (≈ 1.8 µg/mL); in [9] (over ten M. mycetomatis isolates, read-out: MIC50 mean), 4 µM (≈ 1.8 µg/mL). Also, the MIC in test [9] (isolate CBS247.48, read-out: MIC CBS247.48) was 8 µM (≈ 3.6 µg/mL); in test [9] (isolate MM14, read-out: MIC MM14), more than 16 µM; in [9] (isolate MM45, read-out: MIC MM45), more than 16 µM; in test [9] (isolate MM55, read-out: MIC MM55), 8 µM (≈ 3.6 µg/mL); in [9] (isolate P1, read-out: MIC P1), 4 µM (≈ 1.8 µg/mL); in test [9] (isolate ParijsAl1, read-out: MIC ParijsAl1), 2 µM (≈ 0.899 µg/mL). Further, the MIC was 2 µM (≈ 0.899 µg/mL) in test [9] (isolate Peru72012, read-out: MIC Peru72012); 4 µM (≈ 1.8 µg/mL) in test [9] (isolate So1, read-out: MIC So1); 2 µM (≈ 0.899 µg/mL) in [9] (isolate i1, read-out: MIC i1); 16 µM (≈ 7.19 µg/mL) in [9] (isolate i11, read-out: MIC i11). The activity at 25 µM amounted to 9.22% in [6] (mean of replicates, read-out: Percentage survival at 25um, 25 uM mean); 14.5% in test [6] (setting [20]); 1.51% in test [6] (setting [21]); 11.7% in test [6] (setting [22]). The activity at 100 µM in test [6] (mean of replicates, read-out: Percentage survival at 100um, 100 uM mean) turned out to be 16.7%; in test [6] (replicate 1, read-out: Percentage survival at 100um, 100 uM A (first replicate column)), 15.6%; in [6] (replicate 3, read-out: Percentage survival at 100um, 100 uM A (third replicate column)), 20.9%. Also, in test [6] (replicate 2), the Percent fungal survival at 100 µM turned out to be 13.5%. Moreover, the “In vivo efficacy, Larvae survival %” value in [10] (setting [24]) was 13.3%. In addition, the “In vivo efficacy, Enhanced survival compared to control?” value in test [10] (in vivo) was “no”.
Consider `CN(C/C=C/C#CC(C)(C)C)Cc1cccc2ccccc12` [Terbinafine], for which the “Inhibits growth of Medicopsis romeroi at 25 μM” value in test [1] is recorded as “inhibit the growth”. Besides, in test [3], the “Inhibits growth of Falciformispora senegalensis at 25 μM” value is “inhibit the growth”. Also, in test [5] (Senegal, 500 mg twice daily for 24-48 weeks combined with surgery), the “Cure rate of patients” value is given as 30%. The “Inhibits growth of Madurella pseudomycetomatis at 25 μM” value in test [11] is on record as “not the Madurella species”.
For `O=C(NC1CC1)c1ccc(N2CCOc3ccc(Cl)cc32)s1` [MMV020537], in test [7], the “In vitro activity against M. mycetomatis” value is “no activity”.
Regarding `Cc1cc(-c2ccccc2)c(C(=O)C(=O)Nc2ccc(N3CCN(c4ncc(F)cn4)CC3)cc2)n1C` [MMV1782354, Olorofim], in test [1], the “Inhibits growth of Medicopsis romeroi at 25 μM” value is recorded as “no activity”. For the same molecule, the “Drug static or cidal” value in test [2] (M. mycetomatis) is “Cidal”. Moreover, the IC50 in [2] (setting [13]) was less than 16 nM; in [2] (setting [23]) it was less than 98 nM; in test [2] (MM55, replicate 1, read-out: IC50 1 um), less than 98 nM; in [2] (MM55, replicate 2, read-out: IC50 2 um), less than 98 nM; in test [2] (MM55, replicate 3, read-out: IC50 3 um), less than 98 nM. Further, the IC90 in test [2] (MM55, replicate 1, read-out: IC90 1 um) was 3100 nM; in test [2] (MM55, replicate 2, read-out: IC90 2 um), less than 98 nM; in test [2] (MM55, replicate 3, read-out: IC90 3 um), less than 98 nM. In addition, the “Inhibits growth of Falciformispora senegalensis at 25 μM” value in test [3] is reported as “no activity”. Moreover, in test [4], the “MIC50” value is 0.06 µM (≈ 0.0299 µg/mL). For the same molecule, the “MIC range” value in [4] was 0.004 to 0.13 µM. Moreover, the “Inhibits growth of Madurella tropicana at 25 μM” value in test [12] is given as “able to inhibit the growth”. In addition, the activity at 25 µM was 8.22% in [6] (mean of three, M. mycetomatis MM55, read-out: Percentage survival at 25um, 25 uM mean); 5.03% in test [6] (replicate A, M. mycetomatis MM55, read-out: Percentage survival at 25um, 25 um A); 11.4% in test [6] (replicate B, M. mycetomatis MM55, read-out: Percentage survival at 25um, 25 uM B); 8.27% in [6] (replicate C, M. mycetomatis MM55, read-out: Percentage survival at 25um, 25 uM C). For the same molecule, the activity at 100 µM in test [6] (mean of three, M. mycetomatis MM55, read-out: Percentage survival at 100um, 100 uM mean) amounted to 8.8%; in test [6] (replicate 1, M. mycetomatis MM55, read-out: Percentage survival at 100um, 100 uM A (first replicate column)), 0.903%; in test [6] (replicate 3, M. mycetomatis MM55, read-out: Percentage survival at 100um, 100 uM A (third replicate column)) it was 15.3%. In addition, the Percent fungal survival at 100 µM in [6] (replicate 2, M. mycetomatis MM55) turned out to be 10.2%. In addition, the “Larvae survival rate on day ten” value in test [10] (listed as Olorofim) amounted to 33%; in test [10] (listed as olorofim), 33.3%. In addition, the “In vivo efficacy, Enhanced survival compared to control?” value in test [10] (setting [24]) was “yes **”. In test [10] (setting [24]), the “In vivo efficacy, Larvae survival %” value turned out to be 0.0443%. The “Inhibits growth of Madurella pseudomycetomatis at 25 μM” value in [11] is “able to inhibit the growth”.
